The values below come from US20240182525A1, “NOVEL BICYCLIC COMPOUND, OPTICAL ISOMER THEREOF OR PHARMACEUTICALLY ACCEPTABLE SALT THEREOF, USE THEREOF, AND PREPARATION METHOD THEREFOR” (KOREARESEARCH INSTITUTE OF BIOSCIENCE AND BIOTECHNOLOGY, priority 2021, published 2024).

Some results are limits rather than exact numbers.

One data set is described as follows: Cytotoxicity assay, MEF. It is filed as cell-based. The following applies: mouse, MEF cells (embryonic fibroblasts), maximum concentration 100 μM. The protocol:
(§1) To measure the cytotoxicity of the compound represented by Chemical Formula 1 (Chemical Formula 1-1), toxicity was measured in mouse preadipocyte 3T3-L1 cell line, human malignant melanoma A375 cell line, mouse malignant melanoma B16F10 cell line, human oral cancer MDA-MB-435 cell line, mouse breast cancer 4T1 cell line, human breast cancer MCF7 cell line, human brain cancer U87MG cell line, human glioblastoma U373MG cell line, human cervical cancer HeLa cell line, mouse embryonic fibroblast (MEF) cell line, human embryonic kidney HEK293T cell line (Korea Cell Line Bank). First, 1×10^4 cells were divided into 200 μl each in a 96-well plate using Dulbecco's Modified Eagle's Medium (DMEM) supplemented with 10% fetal bovine serum (FBS), […] streptomycin, and 50 U/ml penicillin, while maintaining various cells at 37r in an atmosphere of 5% CO2. The cells were treated with the compound of Chemical Formula 1-1 of the present invention at a maximum concentration of 100 μM and cultured for 48 hours under the same culture conditions. After the incubation, the culture media were removed and the cytotoxicity test results were confirmed (Table 2 and FIG. 3 below).

Data set [1] deals with adipogenesis-associated genes (3T3-L1 cells). The experiment in a line: Q-PCR of adipogenesis-associated genes. The data set is classed as cell-based, mouse. The following applies: FIG. 11. From the text:
In addition, real-time polymerase chain reaction (Q-PCR) was used to confirm the expression of adipogenesis-associated genes. As a result, it was confirmed that the amount of adipogenesis induction-associated mRNA was reduced when treated with the compound of Chemical Formula 1 according to the present invention (FIG. 11).

A short description of a further data set: Cytotoxicity assay, HeLa. The data set is classed as cell-based. The following applies: human, HeLa cells (cervical cancer), maximum concentration 100 μM. How it is done: as §1
The next data set relates to 3T3-L1 cells. The experiment in a line: Cytotoxicity in 3T3-L1 cells in L-conditional or Wnt3a-containing culture media. The data set is classed as cell-based, mouse. The note with it: 2.5 to 10 μM, Wnt3a-containing culture media (2.5%), FIG. 3. The protocol:
Next, in order to confirm the cytotoxicity in the Chemical Formula 1-1 and wnt3 culture, toxicity in 3T3-L1 cells was measured on the compound of Chemical Formula 1-1 of the present invention at a concentration of 2.5 to 10 μM in L-conditional media or Wnt3a-containing culture media (2.5%).

Data set [2] deals with C57BL/C6 mice. The experiment in a line: Blood obesity and liver damage markers in high calorie diet mice. The data set is classed as in vivo, mouse. The following applies: plasma, compared to high calorie control group, FIG. 13. How it is done:
Then, after the experiment was completed, the animal blood of each group was collected and centrifuged to separate plasma, and then representative obesity markers in the blood such as total cholesterol (tCHO), high density lipoprotein (HDL), and low density lipoprotein (LDL), and liver damage markers such as glutamic oxaloacetic transaminase (GOT) and glutamic pyruvic acid transaminase (GPT) were analyzed with a blood chemistry analyzer.

Another data set concerns MC3T3-E1 cell line. The experiment in a line: Cytotoxicity assay in MC3T3-E1 pre-osteoblasts. The note with it: concentration range of 50 μM or less, 7 days, FIG. 14. It is filed as cell-based, mouse. How it is done:
In order to measure the cytotoxicity of the compound represented by Chemical Formula 1 (Chemical Formula 1-1), toxicity was measured in the MC3T3-E1 cell line (Korea Cell Line Bank), which is a pre-osteoblast related to bone formation.
Specifically, a cytotoxicity test was performed to determine the in vivo safety of Chemical Formula 1-1 above. MC3T3-E1 cells, which are mouse osteoblasts, were inoculated into a 96-well plate at a concentration of 5×10^3 cell/well, and incubated overnight in growth media containing alpha-minimum essential media (alpha-MEM, JBI #008-53) supplemented with 10% fetal bovine serum (FBS, Gibco #16000, USA) and 1× antibiotics (Gibco #15240062, USA). […] After incubation, the media were removed, 90 μl of the media and 10 μl of WTS solution were added, and after 1 hour, the absorbance was measured at 450 nm using a microplate reader.

For data set [3], the system named is β, a Wnt3a signaling protein. The experiment in a line: Western blotting of Wnt3a signaling protein in 3T3-L1. It is filed as cell-based, mouse. The following applies: 7.5 μM, 3T3-L1, western blotting, FIGS. 6 and 7. How it is done: To confirm the Wnt3a signaling of Chemical Formula 1-1, the protein level of β, a Wnt3a signaling protein, was measured in the 3T3-L1 cell line. The 3T3-L1 cells were cultured in a 6-well plate (2×10^5 cell/well), and the next day, the cells were replaced with normal culture media (Undifferentiated media; UND) and differentiation induction media (Differentiation media; DM), respectively, followed by treatment with the compound of Chemical Formula 1-1 at 7.5 μM for 48 hours, and then the cells were replaced with new normal culture media (Maintaining media; MM). Here, the compound of Chemical Formula 1-1 at a concentration of 7.5 μM was cultured for 72 hours, followed by western blotting. In FIGS. 6 and 7, it was confirmed that the protein level of β increased in the treatment of the compound of Chemical Formula 1-1 alone and the treatment of Chemical Formula 1-1 and Wnt3a together.

Data set [4] is described as follows: Cytotoxicity assay, U87MG. The data set is classed as cell-based. The note with it: human, U87MG cells (brain cancer), maximum concentration 100 μM. The protocol: as §1
The nature of data set [5]: Cytotoxicity assay, U373MG. It is filed as cell-based. The following applies: human, U373MG cells (glioblastoma), maximum concentration 100 μM. The protocol:
as §1

A short description of a further data set: Cytotoxicity assay, A375. The data set is classed as cell-based. The following applies: human, A375 cells (malignant melanoma); A375, 48 hours, maximum concentration 100 μM. The protocol:
as §1

Data set [6] in a line: Cytotoxicity assay, HEK293T. It is filed as cell-based. The following applies: human, HEK293T cells (embryonic kidney), maximum concentration 100 μM. The protocol:
as §1

The subject of data set [7] is C57BL/C6 mice. The experiment in a line: Anti-obesity effect in high calorie diet mouse model. The note with it: high calorie diet + 15 mg/kg, FIG. 12. It is filed as in vivo. How it is done:
C57BL/C6 mice were used to test the anti-obesity effect in a mouse model with respect to the compound of Chemical Formula 1 of the present invention, which is an adipogenesis-inhibiting compound. For effective evaluation of the anti-obesity model, the control group (general diet), the control group (high calorie diet), and an anti-obesity control group (high calorie diet+Chemical Formula 1 (15 mg/kg)) were compared and evaluated (FIG. 12). The mice injected with the high-calorie diet rather than the general diet gained 131% in body weight, but the mice treated with the high-calorie diet and Chemical Formula 1 (15 mg/kg) together […] 115% in body weight.

A short description of data set [8]: Cytotoxicity assay, 3T3-L1. It is filed as cell-based. The note with it: mouse, 3T3-L1 cells (preadipocytes); 3T3-L1, 48 hours, maximum concentration 100 μM. The protocol:
as §1

Take `CC(C)CC1NC(=O)C2CCCN2C(=O)C(C(O)C(C)C)NC(=O)CNC(=O)C(C(C)O)NC(=O)C2NC(=O)C(NC(=O)/C=C/c3ccccc3C(O)C(C)O)C(C)OC(=O)C(CC(N)=O)NC(=O)C(NC(=O)C(O)NC1=O)C(O)c1ccc(O)c(c1)Oc1ccc2cc1` (centres unmarked) [Chemical Formula 1-1]: the IC50 at 48 h is > 100 µM in “Cytotoxicity assay, MEF”; > 100 µM in “Cytotoxicity assay, HeLa”; > 100 µM in [4]; 89.5 µM in [5]; > 100 µM in “Cytotoxicity assay, A375”; > 100 µM in data set [6]. Also, in data set [8], the IC50 at 48 h was > 100 µM. In addition, the “amount of adipogenesis induction-associated mRNA” value in [1] is given as “reduced”. The figures for the cytotoxicity entry with 3T3-L1 cells and with MC3T3-E1 cell line were “cytotoxicity was not observed” and “did not exhibit cytotoxicity”, respectively. Also, the “glutamic oxaloacetic transaminase (GOT)” value in the data set on C57BL/C6 mice [2] is recorded as “significantly reduced”. In the data set on C57BL/C6 mice [2], the “glutamic pyruvic acid transaminase (GPT)” value is on record as “significantly reduced”. The “high density lipoprotein (HDL)” value with C57BL/C6 mice [2] is reported as “increased”. Also, the “low density lipoprotein (LDL)” value in the data set with C57BL/C6 mice [2] is “significantly reduced”. Besides, in the data set on C57BL/C6 mice [2], the “total cholesterol (tCHO)” value is “significantly reduced”. The “protein level of β” value in data set [3] (compound alone) and in data set [3] (together with Wnt3a) was “increased” each time. For the same compound, in the data set with C57BL/C6 mice [7], the abdominal fat weight result is “significant decrease”. Moreover, in the data set with C57BL/C6 mice [7], the liver weight entry is “significant decrease”. Besides, the body weight with C57BL/C6 mice [7] (high-calorie diet alone 131%) was determined as 115%.

By IC50 is commonly meant the concentration that inhibits the measured activity by half. A higher IC50 goes with weaker potency.
